Like-named read-outs stand apart in the source and are kept apart here.
How the values were obtained:
MV [1] = assay: Viral attachment assay, method 1 (host cell infection); format: cell-based, measles virus
RSV [2] = assay: as above; format: cell-based, respiratory syncytial virus
HCV [3] = assay: as above; format: cell-based, hepatitis C virus
HCMV [4] = assay: Viral inactivation assay; format: cell-based, human cytomegalovirus
DENV-2 [5] = assay: Viral cell-to-cell spread assay; format: cell-based, dengue virus type 2
MV [6] = assay: microbe, parasite or virus in culture; format: cell-based, measles virus; details: for EC50: MV in CHO-SLAM cells, co-treatment with viral inoculum, read-out: Antiviral effect EC50
RSV [7] = assay: Viral penetration assay; format: cell-based, respiratory syncytial virus
HCV [8] = assay: Analysis of drug effects post viral entry; format: cell-based, hepatitis C virus
DENV-2 [9] = assay: Viral attachment assay, method 1 (host cell infection); format: cell-based, dengue virus type 2; details: DENV-2, method 1, 4°C; Figure 4
RSV [10] = assay: Viral cell-to-cell spread assay; format: cell-based, respiratory syncytial virus
DENV-2 [11] = assay: Dose-response antiviral assay (immunohistochemical staining plaque assay); format: cell-based, dengue virus type 2; details: DENV-2, Vero cells
HCV [12] = format: cell-based, hepatitis C virus; details: Huh-7.5 cells
HCV [13] = assay: Viral penetration assay; format: cell-based, hepatitis C virus
MV [14] = assay: Viral inactivation assay; format: cell-based, measles virus
HCMV [15] = assay: Viral attachment assay, method 2 (virus-specific cellular ELISA); format: cell-based, human cytomegalovirus; details: HCMV MOI 5, ELISA, 4°C; highest inhibitory concentration of the compounds
RSV [16] = assay: as above; format: cell-based, respiratory syncytial virus; details: RSV MOI 5, ELISA, 4°C; highest inhibitory concentration of the compounds
HCMV [17] = assay: Viral cell-to-cell spread assay; format: cell-based, human cytomegalovirus
MV [18] = assay: Viral cell-to-cell spread assay; format: cell-based, measles virus
MV [19] = assay: Viral penetration assay; format: cell-based, measles virus
DENV-2 [20] = assay: Viral attachment assay, method 2 (virus-specific cellular ELISA); format: cell-based, dengue virus type 2; details: DENV-2 MOI 5, ELISA, 4°C; highest inhibitory concentration of the compounds
DENV-2 [21] = assay: Analysis of drug effects post viral entry; format: cell-based, dengue virus type 2; details: DENV-2; Figure 6
[22] = In vivo toxicological and metabolic studies; ref [67], [68]; cited from earlier work
ADV-5 = assay: Dose-response antiviral assay (plaque assay); format: cell-based, human adenovirus type-5; details: Human adenovirus sp.; ADV-5 in A549 cells, co-treatment with viral inoculum; read-out: Antiviral effect EC50
HCMV [23] = assay: Dose-response antiviral assay (plaque assay); format: cell-based, human cytomegalovirus; details: HCMV, HEL cells
MV [24] = assay: Viral attachment assay, method 2 (virus-specific cellular ELISA); format: cell-based, measles virus; details: MV MOI 1, ELISA, 4°C; highest inhibitory concentration of the compounds
HCMV [25] = assay: Analysis of drug effects post viral entry; format: cell-based, human cytomegalovirus
RSV [26] = assay: Analysis of drug effects post viral entry; format: cell-based, respiratory syncytial virus
DENV-2 [27] = assay: Viral inactivation assay; format: cell-based, dengue virus type 2; details: Dengue virus
MV [28] = assay: Analysis of drug effects post viral entry; format: cell-based, measles virus

O=C1O[C@H]2[C@@H]3OC(=O)c4cc(O)c(O)c(O)c4-c4c(O)c(O)c5oc(=O)c6c(c(O)c(O)c7oc(=O)c4c5c76)-c4c(cc(O)c(O)c4O)C(=O)OC[C@H]3OC(O)[C@@H]2OC(=O)c2cc(O)c(O)c(O)c2-c2c1cc(O)c(O)c2O (mixture of isomers) [PUG, punicalagin]
inhibition of entry (virus attachment) (MV [1]; MV, method 1, 4°C, Figure 4, PUG more effective than CHLA): 50 – 80% | inhibition at 50 µM (MV [1]; Measles morbillivirus, read-out: Window of antiviral effects: Attachment Method 1, inhibitory effect relative to DMSO control): > 75% | inhibition of virus attachment (RSV [2]; RSV, method 1, 4°C, Figure 4): 90 – 100% | inhibition at 2 µM (RSV [2]; human respiratory syncytial virus, HEp-2, read-out: Window of antiviral effects: Attachment Method 1, inhibitory effect relative to DMSO control): > 75% | inhibition of virus attachment (HCV [3]; HCV, method 1, 4°C, Figure 4): 90 – 100% | inhibition at 50 µM (HCV [3]; Hepatitis C virus, Huh7.5, read-out: Window of antiviral effects: Attachment Method 1, inhibitory effect relative to DMSO control): > 75% | inhibition at 40 µM (HCMV [4]; Human betaherpesvirus 5, HEL, read-out: Window of antiviral effects: Free particle, inhibitory effect relative to DMSO control): > 75% | inhibition at 40 µM (HCMV [4]; Human betaherpesvirus 5, read-out: inhibition of infection after pre-incubation of free virus with compound): ~100% | effect on viral plaque size (cell-to-cell spread) (DENV-2 [5]; DENV-2, Figure 7): unaffected and expanded further | inhibition at 25 µM (DENV-2 [5]; Dengue virus, DENV2, Vero, read-out: Window of antiviral effects: Cell-to-cell spread, inhibitory effect relative to DMSO control): < 25% | EC50 (MV [6]): 25.5 ± 2.94 µM | SI (selectivity index, CC50/EC50) (MV [6]; MV, CHO-SLAM cells): 11.13 | EC50 (MV [6]; Measles morbillivirus): < 35 µM | protection of the host cell from infection during virus penetration (RSV [7]; RSV, shift 4°C to 37°C, Figure 4): 50 – 90% | inhibition at 2 µM (RSV [7]; human respiratory syncytial virus, HEp-2, read-out: Window of antiviral effects: Penetration, inhibitory effect relative to DMSO control): > 75% | protection, treatment post-infection (HCV [8]; HCV, Figure 6): 80 – 100% | inhibition at 50 µM (HCV [8]; Hepatitis C virus, Huh7.5, read-out: Window of antiviral effects: Post-infection, inhibitory effect relative to DMSO control): > 75% | inhibition of virus attachment (DENV-2 [9]): 90 – 100% | effect on viral plaque size (cell-to-cell spread) (RSV [10]; RSV, Figure 7): unaffected and expanded further | inhibition at 2 µM (RSV [10]; human respiratory syncytial virus, HEp-2, read-out: Window of antiviral effects: Cell-to-cell spread, inhibitory effect relative to DMSO control): < 25% | SI (selectivity index, CC50/EC50) (DENV-2 [11]): 19.27 | SI (selectivity index, CC50/EC50) (HCV [12]): 13.31 | protection of the host cell from infection during virus penetration (HCV [13]; HCV, shift 4°C to 37°C, Figure 4): 50 – 90% | inhibition at 50 µM (HCV [13]; Hepatitis C virus, Huh7.5, read-out: Window of antiviral effects: Penetration, inhibitory effect relative to DMSO control): > 75% | block of infection after pre-incubation of free virus with compound (MV [14]; MV, CHLA 90 μM, PUG 50 μM, Figure 3): 60 – 80% | inhibition at 50 µM (MV [14]; Measles morbillivirus, read-out: Window of antiviral effects: Free particle, inhibitory effect relative to DMSO control): 50 to 75% | Window of antiviral effects: Attachment Method 2, inhibitory effect relative to DMSO control (HCMV [15]): ++ (++ 50–75%) | Window of antiviral effects: Attachment Method 2, inhibitory effect relative to DMSO control (RSV [16]): +++ (+++ > 75%) | effect on viral plaque size (cell-to-cell spread) (HCMV [17]; HCMV, Figure 7): near initial size | inhibition at 40 µM (HCMV [17]; Human betaherpesvirus 5, HEL, read-out: Window of antiviral effects: Cell-to-cell spread, inhibitory effect relative to DMSO control): > 75% | effect on viral plaque size (cell-to-cell spread) (MV [18]; MV, Figure 7): near initial size | inhibition at 50 µM (MV [18]; Measles morbillivirus, read-out: Window of antiviral effects: Cell-to-cell spread, inhibitory effect relative to DMSO control): > 75% | protection of the host cell from infection during virus penetration (MV [19]; MV, shift 4°C to 37°C, Figure 4): 50 – 90% | inhibition at 50 µM (MV [19]; Measles morbillivirus, read-out: Window of antiviral effects: Penetration, inhibitory effect relative to DMSO control): > 75% | Window of antiviral effects: Attachment Method 2, inhibitory effect relative to DMSO control (DENV-2 [20]): +++ (+++ > 75%) | protection, treatment post-infection (DENV-2 [21]): < 25% | in vivo toxicity [22]: minimal toxicity | EC50 (ADV-5): 197 ± 20.1 µM | SI (selectivity index, CC50/EC50) (HCMV [23]): 17.86 | Window of antiviral effects: Attachment Method 2, inhibitory effect relative to DMSO control (MV [24]): ++ (++ 50–75%) | protection, treatment post-infection (HCMV [25]; HCMV, Figure 6): 80 – 100% | inhibition at 40 µM (HCMV [25]; Human betaherpesvirus 5, HEL, read-out: Window of antiviral effects: Post-infection, inhibitory effect relative to DMSO control): > 75% | protection, treatment post-infection (RSV [26]; RSV, Figure 6): < 25% | inhibition at 2 µM (RSV [26]; human respiratory syncytial virus, HEp-2, read-out: Window of antiviral effects: Post-infection, inhibitory effect relative to DMSO control): < 25% | inhibition at 25 µM (DENV-2 [27]; DENV2, Vero, read-out: Window of antiviral effects: Free particle, inhibitory effect relative to DMSO control): > 75% | inhibition at 25 µM (DENV-2 [27]; DENV2, read-out: inhibition of infection after pre-incubation of free virus with compound): ~100% | protection, treatment post-infection (MV [28]; MV, Figure 6): 80 – 100% | inhibition at 50 µM (MV [28]; Measles morbillivirus, read-out: Window of antiviral effects: Post-infection, inhibitory effect relative to DMSO control): > 75%

— publication PMC3750913 (BMC Microbiology, 2013)
